Assay [1] deals with mouse ischemic hind limb. Put plainly: Mouse ischemic hind limb model, physiological observations (ladder climbing). In kind it is in vivo. Also on record: key: 1 = walk and climb ... 4 = walk with difficulty, cannot climb. The settings on record: mean score of 10 mice, 10 μg. Here is the method: (§1) Mouse ischemic hind limb model—Ischemia was created in the mouse left hind limb by ligation of the femoral artery. The right hind limb served as control. A day after the operation each of the peptides was injected into one site close to the ligation and one site distal to the ligation. Each mouse was treated with each of the peptides in a total amount of 10 μg.
Physiological observations—Ischemic mice were evaluated for their ability to climb a ladder on day 1, 4, 7, and 10-post operation. The scoring system was as follows: 1—walk and climb; 2—walk and climb with some difficulty, 3—walk and cannot climb the ladder; 4—walk with difficulties and cannot climb the ladder.

Assay [2] relates to mouse ischemic hind limb. Put plainly: Mouse ischemic hind limb model, blood perfusion (Laser Doppler Imager). The assay is classed as in vivo. The settings on record: 14 and 19 days following peptide injection. On the procedure: as §1
Blood perfusion in ischemic mice—The percent of blood perfusion was measured using a Laser Doppler Imager (PeriMed, Sweden) at 14 and 19 days after peptides injections. The average percent perfusion of each limb was computed and expressed as the ischemic (left)/control (right) blood perfusion ratio.

The next assay concerns KDR. In words: Real time PCR gene expression in MVECs, KDR. The assay is classed as cell-based. On the set-up: key: increased (+); non-increased (−). The note with it: 1 ng/ml peptide. On the procedure: (§2) Real Time PCR—MVECs from passage 3 were incubated for 24 hours in EBM-MV supplement-free medium (starving media). Following starvation, 1 ng/ml of synthetic peptides LT, QF, SP, TR, YR, and VL and 10 ng/ml of VEGF were added to the plates. Following 1.5 or 6 hours of incubation, total RNA was extracted using TRIsol reagent (Invitrogen Life Technologies, Carlsbad Calif., USA) and 0.8 μg of the extracted RNA was used as a template for reverse transcription (Invitrogen) using random primers (SuperScript III First-Strand Synthesis System for RT-PCR (hvitrogen, Carlsbad Calif., USA) according to the manufacturer's instructions. Resulting cDNAs were subjected to real time PCR amplification using the ABI prism 7000 Sequence Detection System (Applied Biosystems, Foster City, Calif., USA). Oligonucleotide primers were designed using Primer Express Software (Applied Biosystems, Foster City, Calif., USA) according the translated region of VEGF-A (Accession No:NM_003376), VEGF-C (Accession No:NM_005429), KDR (Accession No:NM_002253), FLT-1 (Accession No:NM_002019), HIF-α (Accession No:HSU22431), and GAPDH (Accession No:NM_002046) and are listed in Table 6, hereinbelow. Briefly, a reaction mixture of 20 μl consisting of DDW, oligonucleotide primers (500 nM), cDNA (3 μl), and SYBR Green PCR master kit (Applied Biosystems, Foster City, Calif., USA) was subjected to an amplification program of 15 seconds at 95° C., and 60 seconds at 60° C. for 40 cycles. Results were analyzed using the Sequence Detector Software Version 1 (Applied Biosystenis).
(§3) Peptides effect on gene expression in MVECs—The effect of the synthetic peptides on the expression in MVECs of selected genes (VEGF-A, VEGF-C, KDR, FLT-1 and HIF-1α) related to the VEGF pathway (a major pathway that participated in angiogenic process) was tested. Synthetic peptides were added at 1 ng/ml for 1.5 and 6 hours. After incubation with peptide, RNA was extracted from MVECs and Real Time PCR was performed. Gene expression was calculated as peptide/control (cells without peptide treatment) ratio.

Assay [3] has as its system ears of nude mice and Balb/C mice. Put plainly: In vivo angiogenesis in a mouse-ear model. Here is the method:
In Wivo angiogenesis in a mouse-ear model—Ear angiogenesis studies were a modification of an approach described previously (Pettersson, 2000). […] Contralateral ears were injected only with PBS. […] Two days after peptide inoculation, angiogenic effect of peptides could be observed.
Histological sections—Histological sections of the mouse-ears injected with the angiogenic peptides were performed by fixing tissues in 4% buffered formalin. Sections were embedded in paraffin blocks sectioned in 4 μm thick layers and stained with hematoxolin-eosin.

A further assay relates to MVECs. In words: MVEC migration assay with synthetic peptides. In kind it is cell-based. The settings on record: 5 hours. On the procedure:
MVEC migration was evaluated as described above except that MVECs from passage 3 were incubated in EBM-MV SFM. […] The presence of migratory cells was detected using the fluorescent ELISA reader at 480/520 nm (Fluostar BMG Lab Teck) as described in Example 2, hereinabove. […]

For a further assay, the system named is ECs (HUVECs). Put plainly: EC migration assay with peptide-presenting phages (Chemicon QCM 96-well Migration Assay). The note with it: 10^5 phages per well, 5 hours. The assay is classed as cell-based, human. On the procedure: EC migration assay—EC migration was evaluated by the Chemicon QCM 96-well Migration Assay (Chemicon International, Temecula, Calif., USA) according to the manufacturer's instructions. Briefly, the kit's migration chamber comprises an insert membrane with 8 μm pores and a feeder tray containing the peptides as chemoattractants. Cell migration was evaluated by placing the cells in the migration chamber and following their migration to the bottom of the membrane.
For the migration/chemoattractant assay, ECs from passage 3 were incubated for 24 hours on gelatin-coated plates in the presence of the M199 SFM. Following trypsinization, 2×10^4 ECs were incubated for 5 hours in each of the 96 wells of the migration chamber. The peptide-presenting phages (10^5 or 10^6) were added to the feeder tray to chemoattractant the cells without being in physical contact with the cells. Cells which reached the bottom of the membrane (i.e., migratory cells) were dissociated from the membrane following the incubation with a cell detachment buffer. The migratory cells were subsequently lysed and detected by the molecular probe CyQuant GR dye which exerts green fluorescent enhancement when bound to cellular nucleic acid.
For activation migration assays, 10^5 or 10^6 peptide-presenting phages were incubated (for 5 hours) with ECs in the migration chamber. NO phages (unmodified M13 phages) served as negative control in both migration assays. Results were determined by a fluorescent ELISA reader at 480/520 nm (Fluostar BMG Lab Teck) and are presented in net values from which the control values were subtracted.

For the next assay, the system named is HIF-1α. Put plainly: Real time PCR gene expression in MVECs, HIF-1α. In kind it is cell-based. On the set-up: key: increased (+); non-increased (−). The note with it: 1 ng/ml peptide, 1.5 hours. Here is the method: as §2, §3
The subject of the next assay is FLT-1. Put plainly: Real time PCR gene expression in MVECs, FLT-1. In kind it is cell-based. On the set-up: key: increased (+); non-increased (−). The note with it: 1 ng/ml peptide. Here is the method:
as §2, §3

The next assay concerns VEGF-A. Put plainly: Real time PCR gene expression in MVECs, VEGF-A. The assay is classed as cell-based. On the set-up: key: increased (+); non-increased (−). The note with it: 1 ng/ml peptide. On the procedure: as §2, §3

Consider “YPHIDSLGHWRR (Phage displayed peptide) [YR]”, for which the “Physiological score (ability to climb a ladder) Day 1” value in the assay on mouse ischemic hind limb [1] (1 = walk and climb ... 4 = walk with difficulties and cannot climb, day 1 post operation) is reported as 2.75. Moreover, in the assay with mouse ischemic hind limb [1] (scale 1-4, day 4 post operation), the “Physiological score (ability to climb a ladder) Day 4” value came out at 2.5. Also, in the assay with mouse ischemic hind limb [1] (scale 1-4, day 7 post operation), the “Physiological score (ability to climb a ladder) Day 7” value was 1.4. The “Physiological score (ability to climb a ladder) Day 10” value in the assay with mouse ischemic hind limb [1] (scale 1-4, day 10 post operation) worked out at 1. Moreover, the “Percent of blood perfusion ratio, ischemic/control limb (significance)” value in the assay with mouse ischemic hind limb [2] is reported as “significant increase”. In addition, the “The blood perfusion ratio (in percentages) of the ischemic vs. control limbs, Mean” value in the assay with mouse ischemic hind limb [2] (10 μg) worked out at 104.349 percentages. Also, in the assay on KDR (1.5 hours), the “KDR Expression after 1.5 hours” value is “+”. The “KDR Expression after 6 hours” value in the assay with KDR (6 hours) is given as “−”. In assay [3] (10 μg peptide, subcutaneous injection into ear), the “Number of blood vessels in the ears of injected mice (photographs)” value was “increased number of blood vessels”. The “Number of blood vessels” value in [3] (10 μg/ear, 5 days after inoculation) is listed as 11. In addition, the “Peptide/PBS = ratio between the No. of blood vessels in the peptide-injected ear and in the PBS-injected ear” value in [3] (mouse ears, contralateral ear PBS) came out at 7.6. Moreover, in the assay on MVECs (1 ng/ml), the “MVECs migration, direct activation by peptides” value amounted to 1.8 folds. Besides, in the assay with MVECs (10 ng/ml), the “Increase in MVECs migration, peptides as chemoattractants” value is on record as 2.4 fold. Besides, the “EC migration, phages as chemoattractants on feeder tray” value with ECs (HUVECs) was “induce migration as chemoattractants”. Moreover, in the assay on HIF-1α, the “HIF Expression after 1.5 hours” value is on record as “−”. In addition, the “FLT-1 Expression after 1.5 hours” value with FLT-1 (1.5 hours) is reported as “+”. Besides, the “FLT-1 Expression after 6 hours” value in the assay on FLT-1 (6 hours) is reported as “−”. The “VEGF-A Expression after 1.5 hours” value with VEGF-A (1.5 hours) is given as “+”. Moreover, the “VEGF-A Expression after 6 hours” value in the assay on VEGF-A (6 hours) is given as “−”.
